Reference: the supplement of paper PMC10307832

How the values were obtained:
Experiment in all cases: relative viability (nuclei count vs DMSO), 5 days (fraction); higher = more cells survive
Midostaurin + Navitoclax = compound: CO[C@@H]1[C@H](N(C)C(=O)c2ccccc2)C[C@H]2O[C@]1(C)n1c3ccccc3c3c4c(c5c6ccccc6n2c5c31)C(=O)NC4 [Midostaurin] + CC1(C)CCC(c2ccc(Cl)cc2)=C(CN2CCN(c3ccc(C(=O)NS(=O)(=O)c4ccc(N[C@H](CCN5CCOCC5)CSc5ccccc5)c(S(=O)(=O)C(F)(F)F)c4)cc3)CC2)C1 [Navitoclax] (partner 0.5 µM)
How it was run: (§1)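 For relative viability, nuclei counts in treated wells were divided by those in vehicle wells. Lung cancer cell lines had been pin-tool dosed in 1536-well plates the day after seeding and cultured for 5 days, then fixed and stained in one step (final 0.05% Triton X-100, 1% formaldehyde, 1 ug/ml Hoechst) and imaged at 4×. Doses were one drug alone or a fixed anchor-drug dose plus five library-drug doses (not always all listed) in √10 steps, and values are duplicate-plate medians.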

[1] = compound: COc1cc(-c2nn([C@H]3CC[C@H](N4CCN(C(C)=O)CC4)CC3)c3ncnc(N)c23)ccc1NC(=O)c1cc2ccccc2n1C + C[C@@H](Oc1cc(-c2cnn(C3CCNCC3)c2)cnc1N)c1c(Cl)ccc(F)c1Cl [Crizotinib] (partner 1 µM)
How it was run: as §1

Midostaurin + Dasatinib = compound: CO[C@@H]1[C@H](N(C)C(=O)c2ccccc2)C[C@H]2O[C@]1(C)n1c3ccccc3c3c4c(c5c6ccccc6n2c5c31)C(=O)NC4 [Midostaurin] + Cc1nc(Nc2ncc(C(=O)Nc3c(C)cccc3Cl)s2)cc(N2CCN(CCO)CC2)n1 [Dasatinib] (partner 0.075 µM)
How it was run: as §1

Midostaurin + Trametinib = compound: CO[C@@H]1[C@H](N(C)C(=O)c2ccccc2)C[C@H]2O[C@]1(C)n1c3ccccc3c3c4c(c5c6ccccc6n2c5c31)C(=O)NC4 [Midostaurin] + CC(=O)Nc1cccc(-n2c(=O)n(C3CC3)c(=O)c3c(Nc4ccc(I)cc4F)n(C)c(=O)c(C)c32)c1 [Trametinib] (partner 0.02 µM)
How it was run: as §1

[2] = compound: COc1cc(-c2nn([C@H]3CC[C@H](N4CCN(C(C)=O)CC4)CC3)c3ncnc(N)c23)ccc1NC(=O)c1cc2ccccc2n1C + O=C(c1cc(Cc2n[nH]c(=O)c3ccccc23)ccc1F)N1CCN(C(=O)C2CC2)CC1 [Olaparib] (partner 8 µM)
How it was run: as §1

Cell Line | relative viability (Midostaurin + Navitoclax; first compound 0.01 µM) | relative viability (Midostaurin + Navitoclax; first compound 0.03162 µM) | relative viability (Midostaurin + Navitoclax; first compound 0.1 µM) | relative viability (Midostaurin + Navitoclax; first compound 0.3162 µM) | relative viability ([1]; first compound 0.0128 µM) | relative viability ([1]; first compound 0.04048 µM) | relative viability ([1]; first compound 0.128 µM) | relative viability ([1]; first compound 1.28 µM) | relative viability (Midostaurin + Dasatinib; first compound 0.01 µM) | relative viability (Midostaurin + Dasatinib; first compound 0.03162 µM) | relative viability (Midostaurin + Dasatinib; first compound 0.1 µM) | relative viability (Midostaurin + Dasatinib; first compound 0.3162 µM) | relative viability (Midostaurin + Trametinib; first compound 0.01 µM) | relative viability (Midostaurin + Trametinib; first compound 0.03162 µM) | relative viability (Midostaurin + Trametinib; first compound 0.1 µM) | relative viability (Midostaurin + Trametinib; first compound 0.3162 µM) | relative viability ([2]; first compound 0.0128 µM) | relative viability ([2]; first compound 0.04048 µM) | relative viability ([2]; first compound 0.128 µM) | relative viability ([2]; first compound 1.28 µM)
201T | 1.19 | 1.2 | 1.17 | 1.25 | 1.02 | 1.05 | 0.941 | 0.815 | 0.557 | 0.533 | 0.562 | 0.558 | 0.714 | 0.707 | 0.755 | 0.795 | 0.899 | 0.896 | 0.767 | 0.623
A549 | 1.2 | 1.08 | 1.08 | 0.77 | 0.854 | 1.02 | 0.686 | 0.719 | – | – | – | – | – | – | – | – | 0.302 | 0.47 | 0.465 | 0.271
A-427 | 0.977 | 0.859 | 0.883 | 0.767 | 1.04 | 0.771 | 0.872 | 0.803 | 0.726 | 0.63 | 0.607 | 0.704 | 0.671 | 0.809 | 0.712 | 0.637 | 0.768 | 0.737 | 0.782 | 0.754
ABC-1 | – | – | – | – | 1.01 | 0.98 | 0.87 | 0.766 | 0.512 | 0.668 | 0.451 | 0.504 | – | – | – | – | 0.6 | 0.835 | 0.665 | 0.806
BEN | 0.0719 | 0.0568 | 0.0815 | 0.064 | 0.8 | 0.996 | 0.756 | 0.576 | 0.371 | 0.32 | 0.405 | 0.379 | 1.05 | 0.976 | 1.06 | 1.25 | 1.1 | 1.05 | 1.02 | 0.848
CAL-12T | 1.44 | 0.981 | 1.05 | 1.2 | 0.621 | 0.818 | 0.581 | 0.413 | 0.446 | 0.395 | 0.295 | 0.239 | 0.399 | 0.298 | 0.331 | 0.33 | 0.682 | 0.763 | 0.811 | 0.697
COR-L23 | 0.99 | 0.966 | 0.87 | 0.925 | 0.59 | 0.845 | 0.675 | 0.602 | 0.436 | 0.455 | 0.368 | 0.27 | 0.599 | 0.555 | 0.573 | 0.497 | 0.347 | 0.41 | 0.367 | 0.395
COR-L 105 | 0.733 | 0.941 | 0.51 | 0.862 | 0.771 | 0.864 | 0.594 | 0.678 | 0.351 | 0.396 | 0.385 | 0.285 | 0.483 | 0.445 | 0.433 | 0.477 | 0.798 | 0.676 | 0.594 | 0.478
Calu-6 | 0.69 | 0.757 | 0.709 | 0.697 | 0.692 | 0.806 | 0.609 | 0.596 | – | – | – | – | – | – | – | – | 0.581 | 0.611 | 0.516 | 0.424
ChaGo-K-1 | 0.909 | 1.36 | 0.915 | 1.25 | 1.17 | 1.13 | 1.03 | 0.882 | 0.509 | 0.584 | 0.541 | 0.689 | 0.949 | 0.963 | 0.806 | 0.915 | 0.488 | 0.452 | 0.409 | 0.328
EBC-1 | 0.49 | 0.453 | 0.429 | 0.312 | 0.193 | 0.198 | 0.24 | 0.185 | – | – | – | – | – | – | – | – | 0.679 | 0.746 | 0.546 | 0.654
EKVX | 0.907 | 0.955 | 0.893 | 0.905 | 0.986 | 1.04 | 0.755 | 0.359 | 0.696 | 0.598 | 0.468 | 0.456 | 0.321 | 0.348 | 0.292 | 0.351 | 1.01 | 0.972 | 0.774 | 0.409
EMC-BAC-2 | 1.19 | 1.09 | 0.981 | 1.08 | 0.759 | 0.848 | 0.731 | 0.532 | 0.358 | 0.372 | 0.273 | 0.248 | 0.853 | 0.791 | 0.876 | 0.699 | 0.52 | 0.645 | 0.473 | 0.5
EPLC-272H | 1.11 | 0.96 | 0.856 | 1.27 | 0.974 | 0.924 | 0.984 | 0.701 | 0.381 | – | 0.422 | 0.351 | 0.352 | 0.304 | 0.28 | 0.301 | 0.666 | 1.01 | 0.729 | 0.589
H3255 | 0.575 | 0.587 | 0.488 | 0.562 | 0.938 | 0.981 | 0.81 | 0.468 | 0.346 | 0.29 | 0.37 | 0.354 | 0.61 | 0.608 | 0.656 | 0.628 | 0.616 | 0.579 | 0.558 | 0.491
HARA | 1.13 | 1.12 | 1.14 | 1.14 | 1.02 | 1.1 | 0.914 | 0.623 | 0.262 | 0.22 | 0.269 | 0.283 | 0.994 | 0.663 | 0.887 | 0.393 | 0.873 | 0.923 | 0.78 | 0.445
